Experimental data taken from patent US11390580B2, “Anti-fungals targeting the synthesis of fungal shingolipids” (THE RESEARCH FOUNDATION FOR THE STATE UNIVERSITY OF NEW YORK, priority 2014, dated 2022).
Converted amounts (≈) assume the structure as drawn. “And” between values parts separate entries of the source, which are not always exact repeats. Identical values can stand only once. Like-named read-outs stand apart in the source and are kept apart here.

Columns and labels:
Cryptococcus neoformans = experiment: In vitro susceptibility testing (MIC); assay type: cell-based
Cryptococcus gattii = experiment: In vitro susceptibility testing (MIC); assay type: cell-based
Candida albicans = experiment: In vitro susceptibility testing (MIC); assay type: cell-based
Candida krusei = experiment: In vitro susceptibility testing (MIC); assay type: cell-based; details: for BHBM 24 Hr 50% / BHBM 48 Hr 50%: MIC, QC strain
Candida glabrata = experiment: In vitro susceptibility testing (MIC); assay type: cell-based
Candida guilliermondii = experiment: In vitro susceptibility testing (MIC); assay type: cell-based
Rhizopus oryzae = experiment: In vitro susceptibility testing (MIC); assay type: cell-based
Blastomyces dermatitis = experiment: In vitro susceptibility testing (MIC); assay type: cell-based; details: for BHBM 96 Hr 50%: MIC, FTL strains
Histoplasma capsulatum = assay type: cell-based
Coccidioides spp = experiment: microbe, parasite or virus in culture; assay type: cell-based; details: for BHBM 48 Hr 50%: MIC, FTL strains
[1] = system: synthesis of GlcCer in mammalian (J774) cells; experiment: In vivo labeling with 3H palmitate, TLC of GlcCer; assay type: cell-based, murine; details: 3H palmitate labeling
[2] = system: intracellular C. neoformans; experiment: Intracellular effect in J774.16 macrophages; assay type: cell-based, Cryptococcus neoformans; details: dose-dependent, particularly after 12 and 24 hours
Method: After 2 hours of incubation, about 60-80% of macrophages have at least one C. neoformans cell internalized. At this time, wells were washed to remove extracellular fungal cells and fresh DMEM medium without serum and without mAb 18B7 but containing different concentrations of BHBM was added. […] At selected time points, 0, 6, 12 and 24 hours, extracellular cells were collected by washing and plated onto YPD for CFU counting of extracellular cells. Then, macrophages containing C. neofromans were lysed, collected and serial dilutions were plated onto YPD for CFU counting of intracellular fungal cells.

Solubility = assay type: physicochemical; details: at 1 mg/ml concentration
C. neoformans H99 = experiment: Animal studies for cryptococcosis (intranasal infection); assay type: in vivo, mice
L2 cell line = experiment: In vitro toxicity; assay type: cell-based
[3] = system: C. albicans secreted vesicles; experiment: Vesicle secretion measured by vesicular sterols; assay type: cell-based, Candida albicans
Excerpt: WF, white field; NBD-Cer, NBD-ceramide.

[4] = system: S. cerevisiae heterozygote library mutants
[5] = In vitro toxicity, MTT assay; details: mouse, J774.16 macrophage cells
E. coli DH5α = experiment: Antibacterial activity, LB agar well diffusion; details: up to 160 μg/mL, 30° C., 24 hr
P. aeruginosa PA14 = experiment: Antibacterial activity, LB agar well diffusion; details: up to 160 μg/mL, 30° C., 24 hr
C. neoformans [6] = experiment: Resistance assay, daily passages in sub-MIC drug; details: 15 days of passages below the MIC
[7] = system: synthesis of GlcCer in C. neoformans cells; experiment: In vivo labeling with 3H palmitate, TLC of GlcCer; details: 3H palmitate labeling
C. neoformans [8] = experiment: Synergistic assay (fractional inhibitory index, FIC)
Pneumocystis murina = experiment: In vitro testing by ATP content (luciferin-luciferase); details: for inhibition at 0.1 µg/mL / inhibition at 1 µg/mL / inhibition at 10 µg/mL / inhibition at 100 µg/mL: read-out: percentage inhibition of ATP

Cc1ccccc1C(=O)NN=Cc1ccc(O)c(Br)c1 [BHBM, N′-(3-bromo-4-hydroxybenzylidene)-2-methylbenzohydrazide]
in vitro activity (Cryptococcus neoformans): good in vitro activity | MIC range (Cryptococcus neoformans; 4 MDP Lab strains, clinical isolates resistant to fluconazole): 1 to 2 µg/mL | MIC range (Cryptococcus neoformans; 8 MDP Lab strains, clinical isolates sensitive to fluconazole): 0.5 to 2 µg/mL | MIC range (Cryptococcus neoformans; 13 Fungus Testing Lab strains): 0.25 to 8 µg/mL | MFC (Cryptococcus neoformans; Cryptococcus neoformans, read-out: MFC (minimum fungicidal concentration)): 4 µg/mL (≈ 12 µM) | BHBM 72 Hr 50% (Cryptococcus neoformans; MIC, FTL strains): 8 and >16 and 16 | sensitivity of Fluconazole-resistant strains (Cryptococcus neoformans; all Fluconazole-resistant C. neoformans strains): sensitive | in vitro activity (Cryptococcus gattii): good in vitro activity | MIC range (Cryptococcus gattii; 3 MDP Lab strains): 0.5 to 1 µg/mL | MIC range (Cryptococcus gattii; 10 Fungus Testing Lab strains): 0.5 to 2 µg/mL | BHBM 72 Hr 50% (Cryptococcus gattii; MIC, FTL strains): 16 and >16 and 8 | in vitro activity (Candida albicans): not active | MIC range (Candida albicans; 3 Fungus Testing Lab strains): >32 µg/mL | MIC range (Candida albicans; 5 MDP Lab strains): >32 µg/mL | MIC range (Candida krusei; 1 MDP Lab strain): 32 µg/mL (≈ 96 µM) | MIC range (Candida krusei; ATCC 6258, MDP Lab): 16 µg/mL (≈ 48 µM) | BHBM 24 Hr 50% (Candida krusei): 4 | BHBM 48 Hr 50% (Candida krusei): 8 | BHBM 24 Hr 50% (Candida krusei; first listing r7-r78): 4 | BHBM 48 Hr 50% (Candida krusei; first listing r7-r78): 8 | MIC (Candida krusei; Pichia kudriavzevii, read-out: MIC (moderately active)): 8 to 16 µg/mL (≈ 24 to 48 µM) | MIC range (Candida krusei; QC, Fungus Testing Lab): 8 µg/mL (≈ 24 µM) | MIC range (Candida glabrata; 10 Fungus Testing Lab strains): 0.125 to 2 µg/mL | MIC (Candida glabrata; Nakaseomyces glabratus, read-out: MIC (moderately active)): 8 to 16 µg/mL (≈ 24 to 48 µM) | BHBM 24 Hr 50% (Candida guilliermondii; MIC, FTL strains): >16 | BHBM 48 Hr 50% (Candida guilliermondii; MIC, FTL strains): >16 | MIC (Candida guilliermondii; Meyerozyma guilliermondii, read-out: MIC (moderately active)): 8 to 16 µg/mL (≈ 24 to 48 µM) | in vitro activity (Rhizopus oryzae): good in vitro activity | MIC range (Rhizopus oryzae; 3 Fungus Testing Lab strains): 2 µg/mL (≈ 6 µM) | in vitro activity (Blastomyces dermatitis): good in vitro activity | MIC range (Blastomyces dermatitis; 10 Fungus Testing Lab strains): 0.5 to 1 µg/mL | BHBM 96 Hr 50% (Blastomyces dermatitis): 1 and 2 | BHBM 96 Hr 50% (Blastomyces dermatitis; first listing r7-r78): 1 and 0.5 | in vitro activity (Histoplasma capsulatum): good in vitro activity | MIC range (Histoplasma capsulatum; 10 Fungus Testing Lab strains): 0.125 to 1 µg/mL | MIC range (Coccidioides spp; 10 Fungus Testing Lab strains): 8 to 16 µg/mL | MIC (Coccidioides spp; Coccidioides, read-out: MIC (moderately active)): 8 to 16 µg/mL (≈ 24 to 48 µM) | BHBM 48 Hr 50% (Coccidioides spp): 16 and 8 and >16 | BHBM 48 Hr 50% (Coccidioides spp; first listing r7-r78): 8 and 16 | inhibition of the synthesis of GlcCer [1]: no significant changes | inhibition of the synthesis of GlcCer ([1]; listed as #5271226): not in mammalian (J774) cells | intracellular replication of C. neoformans [2]: significantly decrease the intracellular replication | DMSO required (Solubility): 30% | mice surviving infection (C. neoformans H99; 1.2 mg/Kg/day intraperitoneally, up to 60 days): 90% | fungal burden in brain (C. neoformans H99; 1.2 mg/Kg/day, day 60): No C. neoformans cells were found in brains | fungal burden in lung (C. neoformans H99; 1.2 mg/Kg/day, day 60, compared to infected untreated mice): decrease the fungal burden in the lung | brain histology (C. neoformans H99; day 60): no fungal cells and normal structure | lung histology (C. neoformans H99; day 60): granulomatous response limited in few areas of the lung | toxicity (L2 cell line): slight to moderate toxicity | secreted vesicles measured by sterol content [3]: marked reductions of secreted vesicles | Fold increased sensitivity to BHBM ([4]; ACT1 heterozygote mutant): 2.0 Fold | Fold increased sensitivity to BHBM ([4]; GLC7 heterozygote mutant): 2.1 Fold | Fold increased sensitivity to BHBM ([4]; GOS1 heterozygote mutant): 2.1 Fold | Fold increased sensitivity to BHBM ([4]; MTW1 heterozygote mutant): 2.5 Fold | Fold increased sensitivity to BHBM ([4]; PEP7 heterozygote mutant): 2.2 Fold | Fold increased sensitivity to BHBM ([4]; REG1 heterozygote mutant): 2.5 Fold | Fold increased sensitivity to BHBM ([4]; RET2 heterozygote mutant): 3.8 Fold | Fold increased sensitivity to BHBM ([4]; RET3 heterozygote mutant): 2.0 Fold | times more sensitive to BHBM ([4]; Rvs167): 1.7 time | Fold increased sensitivity to BHBM ([4]; SAP4 heterozygote mutant): 2.1 Fold | Fold increased sensitivity to BHBM ([4]; SEC26 heterozygote mutant): 2. Fold | Fold increased sensitivity to BHBM ([4]; SEC31 heterozygote mutant): 2.1 Fold | Fold increased sensitivity to BHBM ([4]; SNF8 heterozygote mutant): 2.1 Fold | Fold increased sensitivity to BHBM ([4]; SPT4 heterozygote mutant): 2.3 Fold | Fold increased sensitivity to BHBM ([4]; UBP3 heterozygote mutant): 3.0 Fold | Fold increased sensitivity to BHBM ([4]; VPS3 heterozygote mutant): 2.0 Fold | Fold increased sensitivity to BHBM ([4]; YML018C heterozygote mutant): 2.1 Fold | EC50 at 48 h [5]: 50 µg/mL (≈ 150 µM) | zone of inhibition (E. coli DH5α): No zone of inhibition | zone of inhibition (P. aeruginosa PA14): No zone of inhibition | development of resistance (C. neoformans [6]): do not develop resistance | inhibition of the synthesis of GlcCer [7]: significantly inhibit the synthesis of GlcCer | FIC index (C. neoformans [8]; combined with Amphotericin B): 0.75 | FIC index (C. neoformans [8]; combined with Fluconazole): 0.38 | interaction (C. neoformans [8]; combined with Tunicamycin): synergistic | FIC index (C. neoformans [8]; combined with caspofungin): 1 | IC50 (Pneumocystis murina; 24 h, read-out: IC50, P. murina): 1.02 µg/mL (≈ 3.06 µM) | inhibition at 0.1 µg/mL (Pneumocystis murina; 24 h): 6.64% | inhibition at 1 µg/mL (Pneumocystis murina; 24 h): 66.2% | inhibition at 10 µg/mL (Pneumocystis murina; 24 h): 88.2% | inhibition at 100 µg/mL (Pneumocystis murina; 24 h): 97% | IC50 (Pneumocystis murina; 48 h, read-out: IC50, P. murina): < 0.01 µg/mL | inhibition at 0.1 µg/mL (Pneumocystis murina; 48 h): 76% | inhibition at 1 µg/mL (Pneumocystis murina; 48 h): 87.6% | inhibition at 10 µg/mL (Pneumocystis murina; 48 h): 94.6% | inhibition at 100 µg/mL (Pneumocystis murina; 48 h): 98.9% | IC50 (Pneumocystis murina; 72 h, read-out: IC50, P. murina): < 0.01 µg/mL | inhibition at 0.1 µg/mL (Pneumocystis murina; 72 h): 63.8% | inhibition at 1 µg/mL (Pneumocystis murina; 72 h): 74.6% | inhibition at 10 µg/mL (Pneumocystis murina; 72 h): 93.6% | inhibition at 100 µg/mL (Pneumocystis murina; 72 h): 99.4% | IC50 (Pneumocystis murina; 96 h, read-out: IC50, P. murina): 2.02 µg/mL (≈ 6.06 µM) | inhibition at 0.1 µg/mL (Pneumocystis murina; 96 h): 16.6% | inhibition at 1 µg/mL (Pneumocystis murina; 96 h): 44.5% | inhibition at 10 µg/mL (Pneumocystis murina; 96 h): 66.7% | inhibition at 100 µg/mL (Pneumocystis murina; 96 h): 91.5% | IC50 (Pneumocystis murina; read-out: activity class by IC50, P. murina): < 0.01 µg/mL
